Common to all, as to type: cell-based
Assay [1] deals with Pseudomonas aeruginosa ATCC 15442. In words: MIC and MBC, macro dilution tube method. As to conditions: P. aeruginosa; for MBC: 10^5 CFU.mL^−1. The text has this: (§1) To evaluate the antimicrobial potential of the synthesized compounds, the following reference strains of bacteria, that are economically important in foods, were employed: Gram-positive Listeria monocytogenes ATCC 7644, Staphylococcus aureus ATCC 25923, and Bacillus cereus ATCC 11778; Gram-negative Salmonella Typhimurium ATCC 14028, Escherichia coli O157: H7 NCTC 12900 and the clinically important Pseudomonas aeruginosa ATCC 15442.
(§2) The antimicrobial activity assay using the disk diffusion test was realized using the methodology that is recommended by the Clinical Laboratory Standards Institute (CLSI). The determination of the minimum inhibitory concentration (MIC) and minimum bactericidal concentration (MBC) was performed using the macro dilution tube method, in accordance with Rota et al., with modifications. Details of these assays are provided in the Supplemental Material. […]
(§3) 2.2. Determination of the minimum inhibitory concentration (MIC) and minimum bactericidal concentration
(§4) The MIC was determined using the macro dilution tube method, in accordance with Rota et al.
(§5) [5], with modifications. The tested concentrations were 20, 18, 15, 12, 10, 7 and 5 μL.mL‐1 of each compound. In a tube with 1 mL of MH broth, was inoculated 105 UFC.mL‐1, the compound in a predetermined concentration and, to facilitate the solubility, 2 drops of TWEEN 80. The mixture was incubated at 37 °C for 24 h under stirring (150 rpm). As the positive control, MH broth and inoculum concentration in 105 UFC.mL‐1 and as the negative control MH, the inoculum concentration in 105 UFC∙mL‐1 and streptomycin (10 μg) were used. MIC was defined as the lowest concentration of […]
(§6) After 24 h, tubes with no visible growth were seeded in a […] TSA‐YE tube and incubated at 37 °C for 24 h. The MBC is the lowest concentration of compound where 99.9% of the initially inoculated cells were killed. […]
(§7) 2.4. Radical Scavenging Activity […]
(§8) The ABTS radical scavenging activity was determined according to the method described by Erel. Different concentrations of compounds 5a–d and 10 (10–500 μ M) were mixed with the ABTS+ solution, and the decrease in the absorbance at 734 nm was recorded.

In assay [2] the test system is Salmonella Typhimurium ATCC 14028. Description: MIC and MBC, macro dilution tube method. As to conditions: S. Typhimurium; for MBC: 10^5 CFU.mL^−1; for MIC: 10^5 CFU.mL^−1, 24 h.
Excerpt: as §1, §2, §3, §4, §5, §6, §7, §8

A further assay relates to all the tested bacteria. Description: MIC and MBC, macro dilution tube method, summary over the panel. As to conditions: read-out: MIC and MBC values.
Excerpt: as §1, §2, §3, §4
[5], with modifications. […]
as §8

Values after ≈ are worked out from the molar mass of the structure shown. Some results are limits rather than exact numbers.

In the case of `CC(C)=CCCC(C)(C/C=[N+](\C)[O-])Sc1ccccc1` (stereo not drawn) [5c, (E)-N,3,7-trimethyl-3-(phenylthio)oct-6-en-1-imine oxide], the MBC is 0.61 mM.mL^−1 in assay [1], above 0.69 mM.mL^−1 in assay [2] and 520 to 690 µM (≈ 152 to 201 µg/mL) in the assay on all the tested bacteria. For the same compound, in assay [2], the MIC was above 0.69 mM.mL^−1.

Take `CC(C)=CCCC(C)C/C=[N+](\C)[O-]` (stereo not drawn) [5d, (E)-N,3,7-trimethyloct-6-en-1-imine oxide]: in the assay with all the tested bacteria, the MBC lay in the range of 1130 to 1260 µM (≈ 207 to 231 µg/mL).

For `CC(C)=CCC[C@@H](C)C(/C=N/O)[Se]c1ccccc1` (stereo partly drawn) [compound 10, (3R,E)-3,7-dimethyl-2-(phenylselanyl)oct-6-enal oxime], the MBC in assay [1] and in assay [2] was above 0.70 mM.mL^−1 throughout. Also, the MIC in assay [1] (10^5 CFU.mL^−1, 24 h) is recorded as above 0.70 mM.mL^−1; in assay [2], above 0.70 mM.mL^−1.

The values above are taken from publication PMC5590075, “Synthesis, Antimicrobial, and Antioxidant Activities of Chalcogen-Containing Nitrone Derivatives from (R)-citronellal” (Medicines, 2017).
